Data on 14 compounds can be found in ChEMBL document CHEMBL1129505, “Time-dependent inactivation of aromatase by 6-alkylandrosta-1,4-diene-3,17-diones. Effects of length and configuration of 6-alkyl group” (J Med Chem, 1996).

For data set [1], the target named is T1, Aromatase (Homo sapiens, UniProt P11511).
T1 sequence (P11511 whole entry): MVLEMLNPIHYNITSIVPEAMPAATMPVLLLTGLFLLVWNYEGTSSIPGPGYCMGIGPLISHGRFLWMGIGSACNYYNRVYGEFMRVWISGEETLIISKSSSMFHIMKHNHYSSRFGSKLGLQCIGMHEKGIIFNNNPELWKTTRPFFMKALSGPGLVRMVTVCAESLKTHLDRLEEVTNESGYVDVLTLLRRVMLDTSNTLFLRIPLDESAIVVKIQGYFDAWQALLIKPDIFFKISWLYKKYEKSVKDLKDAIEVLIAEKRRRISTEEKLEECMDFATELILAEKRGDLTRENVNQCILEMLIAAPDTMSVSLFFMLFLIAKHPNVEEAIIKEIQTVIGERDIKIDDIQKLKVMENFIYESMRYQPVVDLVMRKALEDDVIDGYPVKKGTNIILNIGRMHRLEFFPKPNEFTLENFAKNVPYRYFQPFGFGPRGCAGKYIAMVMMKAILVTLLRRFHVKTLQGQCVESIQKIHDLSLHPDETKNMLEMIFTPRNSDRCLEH
Put plainly: In vitro inhibitory activity against Cytochrome P450 19A1 in human placental microsomes. Also on record: species or system Placenta.

The target in data set [2] is T1, Aromatase. Description: Catalytic rate constant for time dependent inactivation of Cytochrome P450 19A1; NT= time-dependent inactivation not observed.
The target in data set [3] is T1, Aromatase. Put plainly: Inactivation constant (Ki) for time-dependent inactivation of Cytochrome P450 19A1; NT= time-dependent inactivation not observed.
Data set [4] has as its target T1, Aromatase. Description: Apparent inhibition constant (Ki) Cytochrome P450 19A1. The note with it: read-out: Ki app.
The next data set concerns the target T2, CYP19A1 (aromatase) (Homo sapiens, UniProt P11511).
T2 sequence (P11511 whole entry): T1 sequence (P11511 whole entry)
Description: Catalytic rate constant for time dependent inactivation of Cytochrome P450 19A1.

The target of data set [5] is T1, Aromatase. Put plainly: Inactivation constant (Ki) for time-dependent inactivation of Cytochrome P450 19A1.

Each structure is given as a SMILES string. pIC50, pKi: −log10 of the molar value.

Take `CCCCCC[C@@H]1CC2C(CCC3(C)C(=O)CCC23)C2(C)C=CC(=O)C=C12` (stereo not given in full): the pIC50 at Aromatase [1] was 7.12. Further, on Aromatase [2], the K inact result is “Inactivation not observed”. For the same compound, the Ki result on Aromatase [3] is recorded as “Inactivation not observed”. The pKi at Aromatase [4] was 8.10.
Turning to `CCCCCC[C@H]1CC2C(CCC3(C)C(=O)CCC23)C2(C)C=CC(=O)C=C12` (stereo not given in full), the pIC50 at Aromatase [1] was 6.55. At CYP19A1 (aromatase), the kinact was 0.000833 s⁻¹. In addition, the pKi was 6.19 on Aromatase [5] and 7.60 on Aromatase [4].
`CCCCC[C@H]1CC2C(CCC3(C)C(=O)CCC23)C2(C)C=CC(=O)C=C12` (stereo not given in full) gave a pIC50 against Aromatase [1] of 6.85. For the same compound, the K inact entry at Aromatase [2] was “Inactivation not observed”. Further, the Ki result at Aromatase [3] is “Inactivation not observed”. The negative-log Ki (pKi) at Aromatase [4] was 7.96.
`CCCCCCC[C@H]1CC2C(CCC3(C)C(=O)CCC23)C2(C)C=CC(=O)C=C12` (stereo not given in full) showed a pIC50 at Aromatase [1] of 6.60. Besides, at Aromatase [2], the K inact entry is listed as “Inactivation not observed”. In addition, the Ki entry at Aromatase [3] is given as “Inactivation not observed”. Besides, the pKi at Aromatase [4] is 7.70.
`CCCCCCC[C@@H]1CC2C(CCC3(C)C(=O)CCC23)C2(C)C=CC(=O)C=C12` (stereo not given in full) gave a pIC50 on Aromatase [1] of 7.22. Also, the K inact entry on Aromatase [2] is “Inactivation not observed”. The Ki entry at Aromatase [3] is listed as “Inactivation not observed”. In addition, on Aromatase [4], the pKi is 8.11.
Consider `C[C@H]1CC2C(CCC3(C)C(=O)CCC23)C2(C)C=CC(=O)C=C12` (stereo not given in full), for which the kinact on CYP19A1 (aromatase) is 0.0008 s⁻¹.
`CCCCC[C@@H]1CC2C(CCC3(C)C(=O)CCC23)C2(C)C=CC(=O)C=C12` (stereo not given in full): at Aromatase [1], the pIC50 is 7.27. The K inact result at Aromatase [2] is “Inactivation not observed”. Besides, the Ki result at Aromatase [3] is given as “Inactivation not observed”. In addition, on Aromatase [4], the pKi is 8.30.
`CCC[C@@H]1CC2C(CCC3(C)C(=O)CCC23)C2(C)C=CC(=O)C=C12` (stereo not given in full) gave a pIC50 on Aromatase [1] of 7.22. Also, the K inact result at Aromatase [2] was “Inactivation not observed”. The Ki entry at Aromatase [3] is “Inactivation not observed”. Moreover, the pKi on Aromatase [4] was 8.15.
`CC[C@@H]1CC2C(CCC3(C)C(=O)CCC23)C2(C)C=CC(=O)C=C12` (stereo not given in full) had a negative logarithm of the IC50 (pIC50) at Aromatase [1] of 7.27. Also, the K inact result on Aromatase [2] is “Inactivation not observed”. Besides, at Aromatase [3], the Ki result is listed as “Inactivation not observed”. Besides, on Aromatase [4], the pKi was 8.33.
Take `C[C@@H]1CC2C(CCC3(C)C(=O)CCC23)C2(C)C=CC(=O)C=C12` (stereo not given in full): on CYP19A1 (aromatase), the kinact is 0.00102 s⁻¹.
In the case of `CCC[C@H]1CC2C(CCC3(C)C(=O)CCC23)C2(C)C=CC(=O)C=C12` (stereo not given in full), the pIC50 against Aromatase [1] is 6.57. Besides, the kinact at CYP19A1 (aromatase) was 0.000733 s⁻¹. The pKi on Aromatase [5] was 6.47; on Aromatase [4] it was 7.66.
At Aromatase [1], `CCCC[C@@H]1CC2C(CCC3(C)C(=O)CCC23)C2(C)C=CC(=O)C=C12` (stereo not given in full) had a pIC50 of 6.74. In addition, the K inact entry on Aromatase [2] is listed as “Inactivation not observed”. Also, on Aromatase [3], the Ki entry is reported as “Inactivation not observed”. For the same compound, the pKi at Aromatase [4] was 7.85.
In turn, `CC[C@H]1CC2C(CCC3(C)C(=O)CCC23)C2(C)C=CC(=O)C=C12` (stereo not given in full) showed a pIC50 against Aromatase [1] of 6.60. In addition, the kinact at CYP19A1 (aromatase) was 0.00108 s⁻¹. Further, the pKi is 6.71 at Aromatase [5] and 7.72 on Aromatase [4].
For `CCCC[C@H]1CC2C(CCC3(C)C(=O)CCC23)C2(C)C=CC(=O)C=C12` (stereo not given in full) the same measures were 6.70, 0.000483 s⁻¹, 6.24 and 7.80.
